Our source for the solubility values is US20230143604A1, “QW DOSING OF GIP RECEPTOR AGONIST PEPTIDE COMPOUNDS AND USES THEREOF” (TAKEDA PHARMACEUTICAL COMPANY LIMITED, priority 2020, published 2023).

The structures appear in SMILES notation. Starred links: 1 amine or outer side, 2 acyl side, 3 side chain; linkers in the order of their positions; H or OH if unused. Non-standard residues stand in square brackets, D forms with d. Residues, ends and D or L forms follow the SMILES beside them. Groups on a side chain read outwards from the residue. *: point of attachment. C18 diacid = O=C(O)CCCCCCCCCCCCCCCCC(=O)*; C17 diacid = O=C(O)CCCCCCCCCCCCCCCC(=O)*; γGlu = O=C(O)[C@H](CCC(=O)[*:2])N[*:1]; NMeY = CN[C@@H](Cc1ccc(O)cc1)C(=O)O; AEEA = NCCOCCOCC(=O)O; Aib = CC(C)(N)C(=O)O

The series is described as follows: Solubility in phosphate buffer pH 7.4. Summed up:
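3 mg of peptide treated with 100 μL portions of 200 mM phosphate buffer pH 7.4, sonicating/vortexing up to 1 min, with further buffer added until fully dissolved. Solubility then quantified by HPLC.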

The mark [1] stands for this setting: pH 7.4, aqueous buffer, pH 7.4 Phosphate Buffer - Solubility, 200 mM Phosphate buffer pH 7.4.

Take `CC[C@H](C)[C@H](NC(=O)[C@H](Cc1ccccc1)NC(=O)[C@@H](NC(=O)CNC(=O)[C@H](CCC(=O)O)NC(=O)C(C)(C)NC(=O)[C@H](Cc1ccc(O)cc1)NC)[C@@H](C)O)C(=O)N[C@@H](CO)C(=O)N[C@@H](CC(=O)O)C(=O)N[C@@H](Cc1ccc(O)cc1)C(=O)N[C@@H](CO)C(=O)N[C@H](C(=O)NC(C)(C)C(=O)N[C@@H](CC(C)C)C(=O)N[C@@H](CC(=O)O)C(=O)N[C@@H](CCCNC(=N)N)C(=O)N[C@@H](CCCCNC(=O)COCCOCCNC(=O)COCCOCCNC(=O)CC[C@H](NC(=O)CC[C@H](NC(=O)CCCCCCCCCCCCCCCC(=O)O)C(=O)O)C(=O)O)C(=O)N[C@@H](C)C(=O)N[C@@H](CCC(N)=O)C(=O)NC(C)(C)C(=O)N[C@@H](CC(N)=O)C(=O)N[C@@H](Cc1ccccc1)C(=O)N[C@H](C(=O)N[C@@H](CC(N)=O)C(=O)N[C@@H](Cc1c[nH]c2ccccc12)C(=O)N[C@@H](CC(C)C)C(=O)N[C@@H](CC(C)C)C(=O)N[C@@H](C)C(=O)N[C@@H](CCC(N)=O)C(=O)N[C@@H](CO)C(=O)N1CCC[C@H]1C(=O)N[C@@H](CO)C(=O)N[C@@H](CO)C(=O)NCC(=O)N[C@@H](C)C(=O)N1CCC[C@H]1C(=O)N1CCC[C@H]1C(=O)N1CCC[C@H]1C(=O)N[C@@H](CO)C(N)=O)C(C)C)[C@@H](C)CC` [Compound 270] (H-[NMeY][Aib]EGTFISDYSI[Aib]LDRK([AEEA-AEEA-γGlu-γGlu-C17 diacid])AQ[Aib]NFVNWLLAQSPSSGAPPPS-NH2): the solubility (in general, how much of the substance goes into solution per volume) under setting [1] was at least 7.5 mg/mL.
On to `CC[C@H](C)[C@H](NC(=O)[C@H](CO)NC(=O)[C@H](Cc1ccc(O)cc1)NC(=O)[C@H](CC(=O)O)NC(=O)[C@H](CO)NC(=O)[C@@H](NC(=O)[C@H](Cc1ccccc1)NC(=O)[C@@H](NC(=O)CNC(=O)[C@H](CCC(=O)O)NC(=O)C(C)(C)NC(=O)[C@H](Cc1ccc(O)cc1)NC)[C@@H](C)O)[C@@H](C)CC)C(=O)N[C@@H](C)C(=O)N[C@@H](CC(C)C)C(=O)N[C@@H](CC(=O)O)C(=O)N[C@@H](CCCNC(=N)N)C(=O)NC(C)(C)C(=O)N[C@@H](CCCCNC(=O)COCCOCCNC(=O)COCCOCCNC(=O)CC[C@H](NC(=O)CC[C@H](NC(=O)CCCCCCCCCCCCCCCCC(=O)O)C(=O)O)C(=O)O)C(=O)N[C@@H](CCC(N)=O)C(=O)NC(C)(C)C(=O)N[C@@H](CC(N)=O)C(=O)N[C@@H](Cc1ccccc1)C(=O)N[C@H](C(=O)N[C@@H](CC(N)=O)C(=O)N[C@@H](Cc1c[nH]c2ccccc12)C(=O)N[C@@H](CC(C)C)C(=O)N[C@@H](CC(C)C)C(=O)N[C@@H](C)C(=O)N[C@@H](CCC(N)=O)C(=O)N[C@@H](CO)C(=O)NCC(=O)O)C(C)C` [Compound 46] (H-[NMeY][Aib]EGTFISDYSIALDR[Aib]K([AEEA-AEEA-γGlu-γGlu-C18 diacid])Q[Aib]NFVNWLLAQSG-OH), for which the solubility (pH 7.4) is at least 15 mg/mL and the solubility (pH 7.4, aqueous buffer) is at least 30 mg/mL.
Consider `CC[C@H](C)[C@H](NC(=O)[C@H](Cc1ccccc1)NC(=O)[C@@H](NC(=O)CNC(=O)[C@H](CCC(=O)O)NC(=O)C(C)(C)NC(=O)[C@@H](N)Cc1ccc(O)cc1)[C@@H](C)O)C(=O)N[C@@H](CO)C(=O)N[C@@H](CC(=O)O)C(=O)N[C@@H](Cc1ccc(O)cc1)C(=O)N[C@@H](CO)C(=O)N[C@H](C(=O)NC(C)(C)C(=O)N[C@@H](CCCCNC(=O)CNC(=O)CNC(=O)CNC(=O)CNC(=O)CNC(=O)CCCCCCCCCCCCCCCCC(=O)O)C(=O)N[C@@H](CC(=O)O)C(=O)N[C@@H](CO)C(=O)N[C@@H](C)C(=O)N[C@@H](C)C(=O)N[C@@H](CCC(N)=O)C(=O)NC(C)(C)C(=O)N[C@@H](CC(=O)O)C(=O)N[C@@H](Cc1ccccc1)C(=O)N[C@H](C(=O)N[C@@H](CC(N)=O)C(=O)N[C@@H](Cc1c[nH]c2ccccc12)C(=O)N[C@@H](CC(C)C)C(=O)N[C@@H](CC(C)C)C(=O)N[C@@H](C)C(=O)N[C@@H](CCC(N)=O)C(=O)N[C@@H](CCCNC(=N)N)C(=O)NCC(=O)O)C(C)C)[C@@H](C)CC` [Compound 151], for which the solubility is at least 15 mg/mL (pH 7.4) and at least 30 mg/mL (pH 7.4, aqueous buffer).
On to `CC[C@H](C)[C@H](NC(=O)[C@H](CO)NC(=O)[C@H](Cc1ccc(O)cc1)NC(=O)[C@H](CC(=O)O)NC(=O)[C@H](CO)NC(=O)[C@@H](NC(=O)[C@H](Cc1ccccc1)NC(=O)[C@@H](NC(=O)CNC(=O)[C@H](CCC(=O)O)NC(=O)C(C)(C)NC(=O)[C@H](Cc1ccc(O)cc1)NC)[C@@H](C)O)[C@@H](C)CC)C(=O)N[C@@H](C)C(=O)N[C@@H](CC(C)C)C(=O)N[C@@H](CC(=O)O)C(=O)N[C@@H](CCCNC(=N)N)C(=O)NC(C)(C)C(=O)N[C@@H](C)C(=O)N[C@@H](CCC(N)=O)C(=O)NC(C)(C)C(=O)N[C@@H](CC(=O)O)C(=O)N[C@@H](Cc1ccccc1)C(=O)N[C@H](C(=O)N[C@@H](CC(N)=O)C(=O)N[C@@H](Cc1c[nH]c2ccccc12)C(=O)N[C@@H](CC(C)C)C(=O)N[C@@H](CC(C)C)C(=O)N[C@@H](C)C(=O)N[C@@H](CCCCNC(=O)COCCOCCNC(=O)COCCOCCNC(=O)CC[C@H](NC(=O)CC[C@H](NC(=O)CCCCCCCCCCCCCCCCC(=O)O)C(=O)O)C(=O)O)C(=O)N[C@@H](CCCNC(=N)N)C(=O)NCC(=O)NCC(=O)NCC(=O)NCC(=O)N[C@@H](CO)C(N)=O)C(C)C` [Compound 57] (H-[NMeY][Aib]EGTFISDYSIALDR[Aib]AQ[Aib]DFVNWLLAK([AEEA-AEEA-γGlu-γGlu-C18 diacid])RGGGGS-NH2), for which the solubility is, setting by setting: (pH 7.4) at least 15 mg/mL; (pH 7.4, aqueous buffer) at least 30 mg/mL.
In the same order, the values of `CC[C@H](C)[C@H](NC(=O)[C@H](CCCCN)NC(=O)[C@H](CC(=O)O)NC(=O)[C@H](CC(C)C)NC(=O)C(C)(C)NC(=O)[C@@H](NC(=O)[C@H](CO)NC(=O)[C@H](Cc1ccc(O)cc1)NC(=O)[C@H](CC(=O)O)NC(=O)[C@H](CO)NC(=O)[C@@H](NC(=O)[C@H](Cc1ccccc1)NC(=O)[C@@H](NC(=O)CNC(=O)[C@H](CCC(=O)O)NC(=O)C(C)(C)NC(=O)[C@@H](N)Cc1ccc(O)cc1)[C@@H](C)O)[C@@H](C)CC)[C@@H](C)CC)C(=O)N[C@@H](C)C(=O)N[C@@H](CCC(N)=O)C(=O)N[C@@H](CCC(N)=O)C(=O)N[C@@H](CCCCNC(=O)COCCOCCNC(=O)COCCOCCNC(=O)CC[C@H](NC(=O)CC[C@H](NC(=O)CCCCCCCCCCCCCCCC(=O)O)C(=O)O)C(=O)O)C(=O)N[C@@H](Cc1ccccc1)C(=O)N[C@H](C(=O)N[C@@H](CCC(=O)O)C(=O)N[C@@H](Cc1c[nH]c2ccccc12)C(=O)N[C@@H](CC(C)C)C(=O)N[C@@H](CC(C)C)C(=O)N[C@@H](C)C(=O)N[C@@H](CCC(N)=O)C(=O)N[C@@H](CCCNC(=N)N)C(=O)NCC(=O)O)C(C)C` [Compound 129] (H-Y[Aib]EGTFISDYSI[Aib]LDKIAQQK([AEEA-AEEA-γGlu-γGlu-C17 diacid])FVEWLLAQRG-OH) are at least 15 mg/mL and at least 30 mg/mL.
As to `CC[C@H](C)[C@H](NC(=O)[C@H](CO)NC(=O)[C@H](Cc1ccc(O)cc1)NC(=O)[C@H](CC(=O)O)NC(=O)[C@H](CO)NC(=O)[C@@H](NC(=O)[C@H](Cc1ccccc1)NC(=O)[C@@H](NC(=O)CNC(=O)[C@H](CCC(=O)O)NC(=O)C(C)(C)NC(=O)[C@H](Cc1ccc(O)cc1)NC)[C@@H](C)O)[C@@H](C)CC)C(=O)N[C@@H](C)C(=O)N[C@@H](CC(C)C)C(=O)N[C@@H](CC(=O)O)C(=O)N[C@@H](CCCNC(=N)N)C(=O)NC(C)(C)C(=O)N[C@@H](C)C(=O)N[C@@H](CCC(N)=O)C(=O)NC(C)(C)C(=O)N[C@@H](CCCCNC(=O)COCCOCCNC(=O)COCCOCCNC(=O)CC[C@H](NC(=O)CC[C@H](NC(=O)CCCCCCCCCCCCCCCCC(=O)O)C(=O)O)C(=O)O)C(=O)N[C@@H](Cc1ccccc1)C(=O)N[C@H](C(=O)N[C@@H](CC(N)=O)C(=O)N[C@@H](Cc1c[nH]c2ccccc12)C(=O)N[C@@H](CC(C)C)C(=O)N[C@@H](CC(C)C)C(=O)N[C@@H](C)C(=O)N[C@@H](CCC(N)=O)C(=O)N[C@@H](CO)C(=O)N1CCC[C@H]1C(=O)N[C@@H](CO)C(=O)N[C@@H](CO)C(=O)NCC(=O)N[C@@H](C)C(=O)N1CCC[C@H]1C(=O)N1CCC[C@H]1C(=O)N1CCC[C@H]1C(=O)N[C@@H](CO)C(N)=O)C(C)C` [Compound 97] (H-[NMeY][Aib]EGTFISDYSIALDR[Aib]AQ[Aib]K([AEEA-AEEA-γGlu-γGlu-C18 diacid])FVNWLLAQSPSSGAPPPS-NH2), the solubility is at least 60 mg/mL under setting [1] and at least 15 mg/mL (pH 7.4, solubility in phosphate buffer at pH 7.4, 200 mM phosphate buffer pH 7.4).
As to `CC[C@H](C)[C@H](NC(=O)[C@H](CCCCN)NC(=O)[C@H](CC(=O)O)NC(=O)[C@H](CC(C)C)NC(=O)[C@H](C)NC(=O)[C@@H](NC(=O)[C@H](CO)NC(=O)[C@H](Cc1ccc(O)cc1)NC(=O)[C@H](CC(=O)O)NC(=O)[C@H](CO)NC(=O)[C@@H](NC(=O)[C@H](Cc1ccccc1)NC(=O)[C@@H](NC(=O)CNC(=O)[C@H](CCC(=O)O)NC(=O)C(C)(C)NC(=O)[C@H](Cc1ccc(O)cc1)NC)[C@@H](C)O)[C@@H](C)CC)[C@@H](C)CC)C(=O)N[C@@H](C)C(=O)N[C@@H](CCC(N)=O)C(=O)NC(C)(C)C(=O)N[C@@H](CCCCNC(=O)COCCOCCNC(=O)COCCOCCNC(=O)CC[C@H](NC(=O)CC[C@H](NC(=O)CCCCCCCCCCCCCCCCC(=O)O)C(=O)O)C(=O)O)C(=O)N[C@@H](Cc1ccccc1)C(=O)N[C@H](C(=O)N[C@@H](CCC(=O)O)C(=O)N[C@@H](Cc1c[nH]c2ccccc12)C(=O)N[C@@H](CC(C)C)C(=O)N[C@@H](CC(C)C)C(=O)N[C@@H](C)C(=O)N[C@@H](CCC(N)=O)C(=O)N[C@@H](CCCNC(=N)N)C(=O)NCC(=O)O)C(C)C` [Compound 173] (H-[NMeY][Aib]EGTFISDYSIALDKIAQ[Aib]K([AEEA-AEEA-γGlu-γGlu-C18 diacid])FVEWLLAQRG-OH), the solubility is, setting by setting: (pH 7.4) at least 15 mg/mL; (pH 7.4, aqueous buffer) at least 30 mg/mL.
